From the SangsterLogP compilation come the findings set out here.

Data set [1] is described as follows: method code SF-HPLC, from DOI: 10.1021/js990112s, PMID: 10585226.

The logP is a log measure of how a compound divides between an organic and an aqueous phase. Consider `COc1ccc(-c2ncc(OC)nc2-c2ccc(OC)cc2)cc1`, for which the logP stood at 4.47. `Cc1nc(C)c(-c2ccccc2)nc1-c1ccccc1` came in with a logP of 4.83. The compound `Cc1ncc(C)[n+]([O-])c1Cl` yielded a logP of 0.19. On to `COc1ccc(-c2ncc(Cl)nc2-c2ccc(OC)cc2)cc1`, for which the logP stood at 4.3. The same measure, in the same setting: to `COc1ccccc1Cc1cnc(-c2ccccc2)c(-c2ccccc2)n1` belongs 5.2; to `Clc1cnc(-c2ccccc2)c(-c2ccccc2)n1`, 4.05. Take `CCOc1cnc(-c2ccc(OC)cc2)c(-c2ccc(OC)cc2)n1`: the logP was 4.22. `Cc1nc(-c2ccccc2)cnc1-c1ccccc1` came in with a logP of 4.28. In turn, `c1ccc(-c2cnccn2)cc1` registered a logP in data set [1] of 2.07. In the case of `Cc1cnc(-c2ccccc2)c(-c2ccccc2)n1`, the logP came out at 3.52. `Brc1ccc(-c2nccnc2-c2ccc(Br)cc2)cc1` registered a logP of 3.41. On to `COc1ccc(-c2nccnc2-c2ccc(OC)cc2)cc1`, for which the logP is 3.42. On to `c1ccc(-c2nccnc2-c2ccccc2)cc1`, for which the logP was determined as 3.19. With `Cc1nc(Cl)c(C)[n+]([O-])c1Cl`, the logP was 1.08.

For `COc1ccc(-c2ncc(C)nc2-c2ccc(OC)cc2)cc1`, the logP amounted to 3.66. As to `CCOc1cnc(-c2ccccc2)c(-c2ccccc2)n1`, the log partition coefficient (logP) came out at 4.73. `COc1ccc(-c2ncc(C#N)nc2-c2ccc(OC)cc2)cc1` returned a logP of 3.7. For `COc1ccc(-c2nc(C)c(C)nc2-c2ccc(OC)cc2)cc1`, the log partition coefficient (logP) turned out to be 4.1. `Cc1ccc(-c2nccnc2-c2ccc(C)cc2)cc1` had a lipophilicity (logP) of 4.1. Consider `Fc1ccc(-c2nccnc2-c2ccc(F)cc2)cc1`, for which the logP amounted to 3.75. On the same count and under the same terms, to `COC(=O)c1cnc(-c2ccc(OC)cc2)c(-c2ccc(OC)cc2)n1` belongs 3.41; to `[O-][n+]1cc(Cl)nc(-c2ccc(Cl)cc2)c1-c1ccc(Cl)cc1`, 3.66. `COc1ccc(-c2cnccn2)cc1` came in with a logP in data set [1] of 2.24. As to `Cc1c[n+]([O-])c(C)c(Cl)n1`, the logP was found to be 0.44. Consider `N#Cc1ccc(-c2nccnc2-c2ccc(C#N)cc2)cc1`, for which the logP is 2.52. Compound `Cc1nc(Cl)c(C)nc1Cl` registered a logP of 2.4. With `CC(C)c1cnc(-c2ccccc2)c(-c2ccccc2)n1`, the logP stood at 4.71. `COc1cnc(-c2ccccc2)c(-c2ccccc2)n1` yielded a logP of 4.21. Take `CCc1nc(-c2ccccc2)cnc1-c1ccccc1`: the logP stood at 4.94.
